Calls of active or inactive are those of the source. The calls are words filed in the database; no cut-off is given here.

Common to all, as to format: functional
Assay [1] deals with Riparian frogs. The assay is described as follows: Positive inotropic action measured as increase in force of contraction in isolated perfused frog heart. As to conditions: Hoplobatrachus tigerinus.
Assay [2] concerns Riparian frogs. Nature of the assay: Negative chronotropic action measured as decrease in rate of contraction in isolated perfused frog heart. As to conditions: Hoplobatrachus tigerinus.
For assay [3], the system named is Riparian frogs. The assay is described as follows: Increase in cardiac output in isolated perfused frog heart. As to conditions: Hoplobatrachus tigerinus.
Assay [4] has as its system Riparian frogs. The assay is described as follows: Negative inotropic action in isolated perfused frog heart. As to conditions: Hoplobatrachus tigerinus.
In assay [5] the target is Adrenergic receptor beta (Homo sapiens) (UniProt P08588+P07550+P13945). The assay is described as follows: Antagonist activity at adrenergic beta receptor assessed as inhibition of adrenalin effect.
Assay [6] relates to Riparian frogs. The assay is described as follows: Decrease in cardiac output in isolated perfused frog heart. As to conditions: Hoplobatrachus tigerinus.
Assay [7] concerns Riparian frogs. Nature of the assay: Effect on rate of contraction in isolated perfused frog heart. As to conditions: Hoplobatrachus tigerinus.
Assay [8] has as its system Riparian frogs. The assay is described as follows: Effect on cardiac output in isolated perfused frog heart. As to conditions: Ranidae.
Assay [9] relates to Riparian frogs. Nature of the assay: Effect on force of contraction in isolated perfused frog heart. As to conditions: Hoplobatrachus tigerinus.
In assay [10] the test system is Riparian frogs. The assay is described as follows: Positive inotropic action measured as increase in force of contraction in isolated perfused frog heart at 1 mg/ml. As to conditions: Hoplobatrachus tigerinus.
The test system of assay [11] is Riparian frogs. Nature of the assay: Increase in cardiac output in isolated perfused frog heart at 1 mg/ml. As to conditions: Hoplobatrachus tigerinus.
The subject of assay [12] is Riparian frogs. Nature of the assay: Increase in cardiac output in isolated perfused frog heart at 500 ug/ml. As to conditions: Hoplobatrachus tigerinus.
Assay [13] has as its system Riparian frogs. Nature of the assay: Positive inotropic action measured as increase in force of contraction in isolated perfused frog heart at 500 ug/ml. As to conditions: Hoplobatrachus tigerinus.

As to `CCOC(=O)C1=C(C)NC(=O)NC1c1ccc(O)cc1` (stereo not given), the Activity entry in the assay with Riparian frogs [1] and in the assay with Riparian frogs [2] was “Dose-dependent effect” in each case. Further, the result with Riparian frogs [3] was Active.
With `CC1=C(C(=O)Oc2ccccc2)C(c2cccc(O)c2)NC(=O)N1` (stereo not given), the Activity result in the assay with Riparian frogs [1] and in the assay on Riparian frogs [2] was “Dose-dependent effect” each time. In the assay on Riparian frogs [3], the result was Active.
Turning to `CCOC(=O)C1=C(C)NC(=O)NC1c1ccccc1Cl` (stereo not given), the result (with Riparian frogs [4]; in the assay with Riparian frogs [2]; in [5]; in the assay with Riparian frogs [6]) was Active.
For `CCOC(=O)C1=C(C)NC(=O)NC1c1ccc(OC)cc1` (stereo not given), the result in the assay on Riparian frogs [1], in the assay with Riparian frogs [2] and in the assay on Riparian frogs [3] was Active.
Turning to `CCOC(=O)C1=C(C)NC(=O)NC1C(C)C` (stereo not given), the Activity entry in the assay with Riparian frogs [1] and in the assay on Riparian frogs [2] was “Dose-dependent effect” each time. In addition, in the assay on Riparian frogs [3], the result was Active.
In the case of `CCOC(=O)C1=C(C)NC(=O)NC1c1ccccc1[N+](=O)[O-]` (stereo not given), the outcome with Riparian frogs [7], in the assay on Riparian frogs [8] and with Riparian frogs [9] was inactive.
As to `CCOC(=O)C1=C(C)NC(=O)NC1c1ccc(-c2ccccc2)cc1` (stereo not given), the result in the assay with Riparian frogs [10], in the assay on Riparian frogs [11], in the assay on Riparian frogs [12] and in the assay on Riparian frogs [13] was Active.
With `CCOC(=O)C1=C(C)NC(=O)NC1c1cccc(O)c1` (stereo not given), the Activity result with Riparian frogs [1] and in the assay with Riparian frogs [2] was “Dose-dependent effect” in each case. In the assay on Riparian frogs [3], the outcome was Active.
In the case of `COC(=O)C1=C(C)NC(=O)NC1c1ccccc1Cl` (stereo not given), the outcome (in the assay on Riparian frogs [4]; in the assay on Riparian frogs [2]; in assay [5]; in the assay with Riparian frogs [6]) was Active.

Source of the values: ChEMBL document CHEMBL1137233, “Synthesis and cardiac effects of 3,4-dihydropyrimidin-2(1H)-one-5 carboxylates” (Bioorg Med Chem Lett, 2006).
